Experimental data as given in PMC3892769 (Journal of medicinal chemistry, 2008).

How the values were obtained:
human DHFR = target: T1, human DHFR (Homo sapiens, UniProt P00374); experiment: Inhibition of human DHFR; format: biochemical
T1 sequence (P00374 1-187): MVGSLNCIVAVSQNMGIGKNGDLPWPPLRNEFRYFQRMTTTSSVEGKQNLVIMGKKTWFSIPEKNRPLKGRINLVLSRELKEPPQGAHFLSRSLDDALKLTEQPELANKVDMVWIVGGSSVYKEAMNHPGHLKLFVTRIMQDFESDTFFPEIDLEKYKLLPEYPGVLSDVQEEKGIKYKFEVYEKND

T. gondii DHFR = target: T2, T. gondii DHFR (Toxoplasma gondii, UniProt Q07422); experiment: biochemical
T2 sequence (Q07422 1-610): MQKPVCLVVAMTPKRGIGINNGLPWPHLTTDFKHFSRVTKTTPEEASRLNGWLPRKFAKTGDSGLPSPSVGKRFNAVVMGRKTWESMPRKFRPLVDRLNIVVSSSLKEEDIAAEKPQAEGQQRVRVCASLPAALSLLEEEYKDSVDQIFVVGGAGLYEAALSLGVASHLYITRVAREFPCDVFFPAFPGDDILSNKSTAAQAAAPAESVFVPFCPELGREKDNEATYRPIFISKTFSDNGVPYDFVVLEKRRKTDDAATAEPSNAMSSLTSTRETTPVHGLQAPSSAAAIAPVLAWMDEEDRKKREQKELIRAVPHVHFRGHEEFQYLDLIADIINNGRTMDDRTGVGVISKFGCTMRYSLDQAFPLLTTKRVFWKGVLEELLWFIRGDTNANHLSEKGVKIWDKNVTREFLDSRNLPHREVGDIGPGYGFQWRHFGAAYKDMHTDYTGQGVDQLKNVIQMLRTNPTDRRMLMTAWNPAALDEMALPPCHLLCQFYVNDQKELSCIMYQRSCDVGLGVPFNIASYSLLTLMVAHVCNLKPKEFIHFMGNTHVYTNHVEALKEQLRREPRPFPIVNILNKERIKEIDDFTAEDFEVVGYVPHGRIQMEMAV

T. gondii TS = target: T3, T. gondii TS (Toxoplasma gondii, UniProt Q07422); experiment: biochemical
T3 sequence (Q07422 1-610): T2 sequence (Q07422 1-610)

E. coli TS = E. coli TS (Escherichia coli, UniProt P0A884); experiment: Inhibition of E. coli TS; format: biochemical
E. coli DHFR = E. coli DHFR (Escherichia coli, UniProt P0ABQ4); experiment: Inhibition of E. coli DHFR; format: biochemical; conditions: read-out: % inhibition of E. coli DHFR at the stated concentration
human TS = human TS (Homo sapiens, UniProt P04818); experiment: Inhibition of human TS; format: biochemical
human FPGS = conditions: at concentrations up to 1045 µM; cited from earlier work

Chain of E. coli TS (P0A884 whole entry): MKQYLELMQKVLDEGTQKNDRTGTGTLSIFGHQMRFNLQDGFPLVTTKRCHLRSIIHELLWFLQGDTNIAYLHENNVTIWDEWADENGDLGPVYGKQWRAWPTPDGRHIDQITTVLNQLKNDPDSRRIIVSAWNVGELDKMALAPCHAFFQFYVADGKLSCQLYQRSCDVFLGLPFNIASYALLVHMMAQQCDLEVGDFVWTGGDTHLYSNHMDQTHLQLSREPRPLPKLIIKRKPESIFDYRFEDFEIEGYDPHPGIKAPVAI
Chain of human TS (P04818 whole entry): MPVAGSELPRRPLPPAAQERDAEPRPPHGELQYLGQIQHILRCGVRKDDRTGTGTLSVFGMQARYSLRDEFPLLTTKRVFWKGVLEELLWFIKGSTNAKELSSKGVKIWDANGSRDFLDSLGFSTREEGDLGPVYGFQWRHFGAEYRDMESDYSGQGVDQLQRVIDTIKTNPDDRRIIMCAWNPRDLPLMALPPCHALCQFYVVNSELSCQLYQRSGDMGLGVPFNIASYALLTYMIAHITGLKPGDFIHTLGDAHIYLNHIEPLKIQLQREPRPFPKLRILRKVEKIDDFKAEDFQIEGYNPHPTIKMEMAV
Chain of E. coli DHFR (P0ABQ4 whole entry): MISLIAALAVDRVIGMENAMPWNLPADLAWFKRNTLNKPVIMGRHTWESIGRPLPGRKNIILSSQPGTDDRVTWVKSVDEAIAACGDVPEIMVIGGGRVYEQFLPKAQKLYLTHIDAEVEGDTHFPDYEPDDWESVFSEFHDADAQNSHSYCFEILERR

Row | Structure (SMILES) | IC50 (human DHFR) [µM] | IC50 (T. gondii DHFR) [µM] | IC50 (T. gondii TS) [µM] | inhibition at 23 µM (T. gondii TS; read-out: % inhibition of T. gondii TS at the stated concentration) [%] | IC50 (E. coli TS) [µM] | inhibition at 23 µM (E. coli TS; read-out: % inhibition of E. coli TS at the stated concentration) [%] | inhibition at 28 µM (E. coli DHFR) [%] | IC50 (human TS) [µM] | Substrate for human FPGS (human FPGS)
1 | COc1ccc(OC)c(Sc2c(C)sc3nc(N)[nH]c(=O)c23)c1 [Compound 8, 2-Amino-5-[(2,5-dimethoxyphenyl)sulfanyl]-6-methylthieno[2,3-d]pyrimidin-4(3H)-one] | 22 | 0.056 | > 23 | 0 | > 23 | 36 | 0 | 4.6 | 
2 | Cc1[nH]c2nc(N)[nH]c(=O)c2c1Sc1ccc(C(=O)N[C@@H](CCC(=O)O)C(=O)O)cc1 [Compound 1, N-{4-[(2-amino-6-methyl-4-oxo-4,7-dihydro-3H-pyrrolo[2,3-d]pyrimidin-5-yl)thio]benzoyl}-L-glutamic acid] |  |  |  |  |  |  |  |  | not a substrate
